Values of other authors in patent publication EP1048712A1, “A process of treating fabrics with a laundry detergent additive tablet” (THE PROCTER & GAMBLE COMPANY, priority 1999, dated 2000).

Settings: 25°C

N#CS [NCS-]
base hydrolysis rates (kOH): 0.0005 M⁻¹ s⁻¹

CC(=O)O [acetate]
base hydrolysis rates (kOH): 0.00096 M⁻¹ s⁻¹

O=CO [formate]
base hydrolysis rates (kOH): 0.00058 M⁻¹ s⁻¹

oxalate
base hydrolysis rates (kOH): 0.00025 M⁻¹ s⁻¹
